According to ChEMBL document CHEMBL3994565 (Medchemcomm, 2016):

Legend:
[1] = Antiviral activity against Influenza A virus (A/WSN/33(H1N1)) infected in MDCK cells assessed as inhibition of virus-induced cytopathic effect at 100 uM incubated for 40 hrs by CellTiter-Glo assay; type: functional, Influenza A virus (A/WSN/1933(H1N1))
[2] = Cytotoxicity against MDCK cells assessed as cell viability at 100 uM after 40 hrs by CellTiter-Glo assay relative to control; type: cell-based, Canis lupus familiaris; settings: dog, read-out: Activity
[3] = Cytotoxicity against MDCK cells assessed as decrease in cell viability after 40 hrs by CellTiter-Glo assay; type: cell-based, Canis lupus familiaris; settings: dog
[4] = Selectivity index, ratio of CC50 against uninfected MDCK cells to IC50 against Influenza A virus (A/WSN/33(H1N1)) infected MDCK cells; type: toxicity, cell-based; settings: dog; read-out: Ratio CC50/IC50
[5] = Antiviral activity against Influenza A virus (A/WSN/33(H1N1)) infected in MDCK cells assessed as inhibition of virus-induced cytopathic effect incubated for 40 hrs by CellTiter-Glo assay; type: functional, cell-based, Influenza A virus (A/WSN/1933(H1N1))

SMILES	inhibition at 100 µM [1]	viability at 40 h, 100 µM [2]	CC50 at 40 h [3]	selectivity ratio [4]	IC50 [5]
COC(=O)[C@@]1(OCCI)C[C@H](OC(C)=O)[C@@H](NC(C)=O)[C@H]([C@H](OC(C)=O)[C@@H](COC(C)=O)OC(C)=O)O1	6.3%	103%	–	–	–
COC(=O)[C@@]1(N=[N+]=[N-])C[C@H](OC(C)=O)[C@@H](NC(C)=O)[C@H]([C@H](OC(C)=O)[C@@H](COC(C)=O)OC(C)=O)O1	1%	100%	–	–	–
COC(=O)[C@@]1(n2cc(CNC(=O)[C@]34CCC(C)(C)C[C@@H]3C3=CC[C@@H]5[C@@]6(C)CC[C@H](O)C(C)(C)[C@@H]6CC[C@@]5(C)[C@]3(C)CC4)nn2)C[C@H](O)[C@@H](NC(C)=O)[C@H]([C@H](O)[C@H](O)CO)O1	-4.6%	106%	–	–	–
COC(=O)[C@@]1(OCCN=[N+]=[N-])C[C@H](OC(C)=O)[C@@H](NC(C)=O)[C@H]([C@H](OC(C)=O)[C@@H](COC(C)=O)OC(C)=O)O1	4.3%	100%	–	–	–
C=C(C)[C@@H]1CC[C@]2(C(=O)NCc3cn([C@]4(C(=O)OC)C[C@H](OC(C)=O)[C@@H](NC(C)=O)[C@H]([C@H](OC(C)=O)[C@@H](COC(C)=O)OC(C)=O)O4)nn3)CC[C@]3(C)[C@H](CC[C@@H]4[C@@]5(C)CC[C@H](O)C(C)(C)[C@@H]5CC[C@]43C)[C@@H]12	16%	100%	–	–	–
COC(=O)[C@@]1(n2cc(CNC(=O)[C@]34CC[C@@H](C)[C@H](C)[C@@H]3C3=CC[C@@H]5[C@@]6(C)CC[C@H](O)C(C)(C)[C@@H]6CC[C@@]5(C)[C@]3(C)CC4)nn2)C[C@H](O)[C@@H](NC(C)=O)[C@H]([C@H](O)[C@H](O)CO)O1	–	12.2%	–	–	–
COC(=O)[C@@]1(OCCn2cc(CNC(=O)[C@]34CCC(C)(C)C[C@@H]3C3=CC[C@@H]5[C@@]6(C)CC[C@H](O)C(C)(C)[C@@H]6CC[C@@]5(C)[C@]3(C)CC4)nn2)C[C@H](OC(C)=O)[C@@H](NC(C)=O)[C@H]([C@H](OC(C)=O)[C@@H](COC(C)=O)OC(C)=O)O1	57.8%	97.1%	> 500 µM	> 5.2	95.2 µM
COC(=O)[C@@]1(OCCn2cc(CNC(=O)[C@]34CCC(C)(C)C[C@@H]3C3=CC[C@@H]5[C@@]6(C)CC[C@H](O)C(C)(C)[C@@H]6CC[C@@]5(C)[C@]3(C)C[C@H]4O)nn2)C[C@H](OC(C)=O)[C@@H](NC(C)=O)[C@H]([C@H](OC(C)=O)[C@@H](COC(C)=O)OC(C)=O)O1	15.3%	105%	–	–	–
COC(=O)[C@@]1(OCCn2cc(CNC(=O)[C@]34CCC(C)(C)C[C@@H]3C3=CC[C@@H]5[C@@]6(C)CC[C@H](O)C(C)(C)[C@@H]6CC[C@@]5(C)[C@]3(C)C[C@H]4O)nn2)C[C@H](O)[C@@H](NC(C)=O)[C@H]([C@H](O)[C@H](O)CO)O1	2.2%	107%	–	–	–
COC(=O)[C@@]1(n2cc(CNC(=O)[C@]34CCC(C)(C)C[C@@H]3C3=CC[C@@H]5[C@@]6(C)CC[C@H](O)C(C)(C)[C@@H]6CC[C@@]5(C)[C@]3(C)C[C@H]4O)nn2)C[C@H](O)[C@@H](NC(C)=O)[C@H]([C@H](O)[C@H](O)CO)O1	-3.6%	104%	–	–	–
CC1(C)CC[C@]2(C(=O)O)CC[C@]3(C)C(=CC[C@@H]4[C@@]5(C)CC[C@H](O)C(C)(C)[C@@H]5CC[C@]43C)[C@@H]2C1 [OLEANOLIC_ACID]	–	60.9%	–	–	–
COC(=O)[C@@]1(n2cc(CNC(=O)[C@]34CC[C@@H](C)[C@H](C)[C@@H]3C3=CC[C@@H]5[C@@]6(C)CC[C@H](O)C(C)(C)[C@@H]6CC[C@@]5(C)[C@]3(C)CC4)nn2)C[C@H](OC(C)=O)[C@@H](NC(C)=O)[C@H]([C@H](OC(C)=O)[C@@H](COC(C)=O)OC(C)=O)O1	–	2.5%	–	–	–
COC(=O)[C@@]1(OCCOC(=O)[C@]23CC[C@@H](C)[C@H](C)[C@@H]2C2=CC[C@@H]4[C@@]5(C)CC[C@H](O)C(C)(C)[C@@H]5CC[C@@]4(C)[C@]2(C)CC3)C[C@H](O)[C@@H](NC(C)=O)[C@H]([C@H](O)[C@H](O)CO)O1	–	0.1%	–	–	–
C=C(C)[C@@H]1CC[C@]2(C(=O)NCc3cn([C@]4(C(=O)OC)C[C@H](O)[C@@H](NC(C)=O)[C@H]([C@H](O)[C@H](O)CO)O4)nn3)CC[C@]3(C)[C@H](CC[C@@H]4[C@@]5(C)CC[C@H](O)C(C)(C)[C@@H]5CC[C@]43C)[C@@H]12	-8.1%	104%	–	–	–
COC(=O)[C@@]1(OCCn2cc(CNC(=O)[C@]34CCC(C)(C)C[C@@H]3C3=CC[C@@H]5[C@@]6(C)CC[C@H](O)C(C)(C)[C@@H]6CC[C@@]5(C)[C@]3(C)CC4)nn2)C[C@H](O)[C@@H](NC(C)=O)[C@H]([C@H](O)[C@H](O)CO)O1	6.7%	107%	–	–	–
C=C(C)[C@@H]1CC[C@]2(C(=O)NCc3cn(CCO[C@]4(C(=O)OC)C[C@H](O)[C@@H](NC(C)=O)[C@H]([C@H](O)[C@H](O)CO)O4)nn3)CC[C@]3(C)[C@H](CC[C@@H]4[C@@]5(C)CC[C@H](O)C(C)(C)[C@@H]5CC[C@]43C)[C@@H]12	12.2%	104%	–	–	–
COC(=O)[C@@]1(OCCOC(=O)[C@]23CCC(C)(C)C[C@@H]2C2=CC[C@@H]4[C@@]5(C)CC[C@H](O)C(C)(C)[C@@H]5CC[C@@]4(C)[C@]2(C)C[C@H]3O)C[C@H](O)[C@@H](NC(C)=O)[C@H]([C@H](O)[C@H](O)CO)O1	-11.8%	99.8%	–	–	–
CC1(C)CC[C@]2(C(=O)O)[C@H](O)C[C@]3(C)C(=CC[C@@H]4[C@@]5(C)CC[C@H](O)C(C)(C)[C@@H]5CC[C@]43C)[C@@H]2C1	–	40.1%	–	–	–
COC(=O)[C@@]1(OCCOC(=O)[C@]23CCC(C)(C)C[C@@H]2C2=CC[C@@H]4[C@@]5(C)CC[C@H](O)C(C)(C)[C@@H]5CC[C@@]4(C)[C@]2(C)CC3)C[C@H](OC(C)=O)[C@@H](NC(C)=O)[C@H]([C@H](OC(C)=O)[C@@H](COC(C)=O)OC(C)=O)O1	18.7%	90.1%	–	–	–
COC(=O)[C@@]1(OCCOC(=O)[C@]23CC[C@@H](C)[C@H](C)[C@@H]2C2=CC[C@@H]4[C@@]5(C)CC[C@H](O)C(C)(C)[C@@H]5CC[C@@]4(C)[C@]2(C)CC3)C[C@H](OC(C)=O)[C@@H](NC(C)=O)[C@H]([C@H](OC(C)=O)[C@@H](COC(C)=O)OC(C)=O)O1	–	0.2%	–	–	–
C[C@H]1[C@H](C)CC[C@]2(C(=O)O)CC[C@]3(C)C(=CC[C@@H]4[C@@]5(C)CC[C@H](O)C(C)(C)[C@@H]5CC[C@]43C)[C@H]12 [URSOLIC ACID]	–	0.4%	–	–	–
COC(=O)[C@@]1(OCCn2cc(CNC(=O)[C@]34CC[C@@H](C)[C@H](C)[C@@H]3C3=CC[C@@H]5[C@@]6(C)CC[C@H](O)C(C)(C)[C@@H]6CC[C@@]5(C)[C@]3(C)CC4)nn2)C[C@H](OC(C)=O)[C@@H](NC(C)=O)[C@H]([C@H](OC(C)=O)[C@@H](COC(C)=O)OC(C)=O)O1	–	3.3%	–	–	–
COC(=O)[C@@]1(OCCOC(=O)[C@]23CCC(C)(C)C[C@@H]2C2=CC[C@@H]4[C@@]5(C)CC[C@H](O)C(C)(C)[C@@H]5CC[C@@]4(C)[C@]2(C)CC3)C[C@H](O)[C@@H](NC(C)=O)[C@H]([C@H](O)[C@H](O)CO)O1	16.4%	82.4%	–	–	–
COC(=O)[C@@]1(n2cc(CNC(=O)[C@]34CCC(C)(C)C[C@@H]3C3=CC[C@@H]5[C@@]6(C)CC[C@H](O)C(C)(C)[C@@H]6CC[C@@]5(C)[C@]3(C)C[C@H]4O)nn2)C[C@H](OC(C)=O)[C@@H](NC(C)=O)[C@H]([C@H](OC(C)=O)[C@@H](COC(C)=O)OC(C)=O)O1	-5.2%	103%	–	–	–
COC(=O)[C@@]1(OCCn2cc(CNC(=O)[C@]34CC[C@@H](C)[C@H](C)[C@@H]3C3=CC[C@@H]5[C@@]6(C)CC[C@H](O)C(C)(C)[C@@H]6CC[C@@]5(C)[C@]3(C)CC4)nn2)C[C@H](O)[C@@H](NC(C)=O)[C@H]([C@H](O)[C@H](O)CO)O1	–	20.1%	–	–	–
C=C(C)[C@@H]1CC[C@]2(C(=O)NCc3cn(CCO[C@]4(C(=O)OC)C[C@H](OC(C)=O)[C@@H](NC(C)=O)[C@H]([C@H](OC(C)=O)[C@@H](COC(C)=O)OC(C)=O)O4)nn3)CC[C@]3(C)[C@H](CC[C@@H]4[C@@]5(C)CC[C@H](O)C(C)(C)[C@@H]5CC[C@]43C)[C@@H]12	67.6%	105%	> 500 µM	> 6.3	78.3 µM
COC(=O)[C@@]1(n2cc(CNC(=O)[C@]34CCC(C)(C)C[C@@H]3C3=CC[C@@H]5[C@@]6(C)CC[C@H](O)C(C)(C)[C@@H]6CC[C@@]5(C)[C@]3(C)CC4)nn2)C[C@H](OC(C)=O)[C@@H](NC(C)=O)[C@H]([C@H](OC(C)=O)[C@@H](COC(C)=O)OC(C)=O)O1	1.3%	104%	–	–	–
COC(=O)[C@@]1(OCCOC(=O)[C@]23CCC(C)(C)C[C@@H]2C2=CC[C@@H]4[C@@]5(C)CC[C@H](O)C(C)(C)[C@@H]5CC[C@@]4(C)[C@]2(C)C[C@H]3O)C[C@H](OC(C)=O)[C@@H](NC(C)=O)[C@H]([C@H](OC(C)=O)[C@@H](COC(C)=O)OC(C)=O)O1	31.2%	84.5%	–	–	–
